Reference: patent publication US20230330060A1, “COMPOUNDS FOR TREATMENT OF HEART FAILURE” (Sulfateq B.V., priority 2020, published 2023)

What was measured:
[1] = tested on: H9C2 cardiomyocytes; test: Quantification of phenylephrine-induced EGFP synthesis as surrogate for cell size (hypertrophy); type: cell-based, rat; details: for SUL EGFP Inhibition (%): 30 μM SUL compound, calculated as 100%-Emax; for Expression of EGFP induced by phenylephrine (FIG. 3): preincubation with 30 μM compound
Procedure: (§1) Rat H9C2 cardiomyoblasts (ATCC CRL-1446) were maintained in DMEM medium containing 10% fetal bovine serum and 1% Penicillin-Streptomycin solution (Sigma-Aldrich) and passaged when the cultures reach a confluency of 70%. Prior to experiments, H9C2 myoblasts were differentiated to cardiomyocytes by serum reduction (to 1%) and stimulation with 20 nM retinoic acid for 5 days. Differentiated H9C2 cardiomyocytes were seeded at 0.6·10^5 cells/cm^2 for all experiments.
H9C2 cardiomyocytes (0.6·10^5 cells/cm2) were infected with CMV-copGPF (MOI 10) in culture medium without serum for 24 h. H9C2 cardiomyocytes were pre-incubated with 30 μM SUL compounds under standard culture conditions for 30 min and then stimulated with phenylephrine (dose range 2·10^−5 to 1·10^−11 M) for an additional period of 24 h. Thereafter H9C2 cardiomyocytes were lysed in 100 μl soft lysis buffer (25 mM Tris, 2 mM Dithiothreitol, 2 mM EDTA, 1% Triton X-100, pH 7.4). per well and fluorescence intensity of the obtained supernatant was recorded in a CLARIOStar Plus plate reader (BMG Labtech) equipped with a FITC filter set (excitation 488 nm with 10 nm bandwidth; emission 515 with a 20 nm bandwidth).
All experiments were performed in triplicate per condition and averaged. Data obtained from two individual experiments were used for evaluation in GraphPad Prism 8.0 (GraphPad Software Inc, Ca). Average H9C2 cardiomyocyte cell size was associated to average EGFP levels using linear regression. Phenylephrine-induced EGFP synthesis was normalized, using baseline levels as 0% and maximum EGFP recordings as 100%. All datasets were normalized to vehicle controls. 4 parameter non-linear regression was used to determine the efficacy of potency of phenylephrine to induce GFP synthesis. The efficacy of SUL compounds to inhibit phenylephrine-induced EGFP synthesis was calculated as 100%-Emax, wherein Emax is the maximal effect evoked by phenylephrine.

[2] = tested on: H9C2 cardiomyocytes; test: Protein synthesis by H9C2 cardiomyocytes after phenylephrine; type: cell-based; details: Rattus norvegicus, FIG. 2D, read-out: EC50 for increase of protein synthesis
[3] = tested on: H9C2 cardiomyocytes; test: Determination of cell size (cell surface area) after phenylephrine; type: cell-based, rat; details: 24 h
Procedure: as §1
H9C2 cardiomyocytes were serum starved for 24 h and thereafter exposed to different concentrations of phenylephrine (dose range 2·10^−5 to 1·10^−11 M) for an additional 24 h. Cells were washed in ice-cold PBS and fixed by 2% paraformaldehyde in PBS at room temperature for 10 min. Fixed cells were incubated with 5 μM Rhodamine-conjugated Phalloidin (ThermoFisher Scientific) and washed extensively with PBS. Fluorescent pictures were taken randomly with an Zeiss AxioObserver Z1 microscope and cell size was analyzed with CellProfiler software [McQuin, 2018].

| Structure (SMILES) | SUL EGFP Inhibition (%) [1] [%] | Expression of EGFP induced by phenylephrine (FIG. 3) [1] | also measured |
| --- | --- | --- | --- |
| C[C@H]1CCC/C=C/[C@@H]2C[C@H](O)C[C@H]2[C@H](O)/C=C/C(=O)O1 [Brefeldin A, reference compound] | – | – | Phenylephrine-induced increase in EGFP fluorescence (FIG. 2F) ([1]; addition of protein synthesis inhibitor): inhibits the phenylephrine-induced increase in EGFP fluorescence |
| CNC[C@H](O)c1cccc(O)c1 [Phenylephrine] | – | – | EC50 [2]: 0.55 nM; EC50 ([1]; Rattus norvegicus, H9C2 cardiomyocytes transformed with CMV-EGFP lentiviral particles, FIG. 2B, read-out: EC50 for increase of EGFP fluorescence): 5.2 nM; H9C2 cardiomyocyte cell surface area ([3]; 2·10^−5 M phenylephrine, vehicle-treated control 791±263 μm^2): 3278±296 μm^2; EC50 ([3]; Rattus norvegicus, H9c2, phenylephrine 1·10^−11 to 2·10^−5 M, FIG. 2A, read-out: EC50 for increase of H9C2 cardiomyocyte cell surface area): 0.74 nM |
| Cc1c(C)c2c(c(C)c1O)CCC(C)(C(=O)O)O2 (stereo not shown) [SUL-11, 6-hydroxy-2,5,7,8-tetramethylchroman-2-carboxylic acid (Trolox), reference compound] | 54.05 | reduced the expression of EGFP | – |
| Cc1c(C)c2c(c(C)c1O)CC[C@@](C)(C(=O)N[C@@H]1CCCNC1)O2 [SUL-13, (S)-6-hydroxy-2,5,7,8-tetramethyl-N-((R)-piperidin-3-yl)chromane-2-carboxamide] | 68.85 | reduced the expression of EGFP | – |
| COC(=O)CNC(=O)C1(C)CCc2c(C)c(O)c(C)c(C)c2O1 (stereo not shown) [SUL-99, methyl [(6-hydroxy-2,5,7,8-tetramethyl-3,4-dihydro-2H-1-benzopyran-2-carbonyl)amino]acetate, reference compound] | 55.11 | reduced the expression of EGFP | – |
| Cc1c(C)c2c(c(C)c1O)CC[C@@](C)(C(=O)N1CCN(CCO)CC1)O2 [SUL-138, (S)-(6-hydroxy-2,5,7,8-tetramethylchroman-2-yl)(4-(2-hydroxyethyl)piperazin-1-yl)methanone] | 63.18 | reduced the expression of EGFP | – |
| Cc1c(C)c(O)c(CC[C@@](C)(O)C(=O)N2CCN(CCO)CC2)c(C)c1O [SUL-138M2, 4-(2,5-dihydroxy-3,4,6-trimethylphenyl)-2-hydroxy-1-(4-(2-hydroxyethyl)piperazin-1-yl)-2-methylbutan-1-one] | 43.92 | – | – |
| Cc1c(C)c2c(c(C)c1O)CC[C@@](C)(C(=O)N1CCNCC1)O2 [SUL-151, (S)-(6-hydroxy-2,5,7,8-tetramethylchroman-2-yl)(piperazin-1-yl)methanone] | 56.8 | reduced the expression of EGFP | – |
